Experimental data reported in US20210115494A1, “Improved method for measurement of microbial biomass” (Mycometer A/S, priority 2018, published 2021).

Columns and labels:
non-fungal NAHA activity = test: NAHA activity assay, non-fungal sources overall; format: biochemical
Description: (§1) In order to determine NAHA activity in different samples, the technology in WO 98/033934 was employed: A sample containing a dried or freeze dried organism is added to a buffer solution containing 4-Methylumbelliferyl N-acetyl-β-D-glucosaminide in a concentration of 20 μM. The reaction-time is varied depending on the ambient temperature and according to a reaction-time/temperature data sheet previously developed for fungal NAHA activity at various temperatures, and is 30 minutes at 23° C. The resulting fluorescence formed during the reaction time is monitored in a calibrated fluorometer.
(§2) Experiments were conducted where varying concentrations of AgNO3 was added to an analysis substrate. Furthermore, the experiments where performed on dried or freeze dried materials where both intact and fragmented cells are to be expected to be present.
(§3) Experiments analogous to those in example 1 were carried out, but instead of using non-specific inhibitors, the effect of different concentrations of DNJNAc on the NAHA activity in various biomass containing samples was investigated.

fungal NAHA activity = test: NAHA activity assay, fungal sources overall; format: biochemical, fungi
Description: as §1, §2, §3
The experiments were performed with whole cell/organism cultures rather than purified enzyme, which is normally used in experiments on specific inhibition. It is plausible, though, that the surprising non-specific inhibition effect observed for Ag^+ and Hg^+ could be due to the inhibitors being delayed in physically contacting the NAHA enzyme in the fungi when compared to other types of biomass.

[1] = test system: NAHA activity from all sources; test: NAHA activity assay, all sources; format: biochemical; settings: 500 μM
Description: as §1

[2] = test system: NAHA activity from Human skin cells; test: NAHA activity assay, human skin cells; format: biochemical; settings: 30 min
Description: as §1, §2, §3

[3] = test system: NAHA activity from Mucor hiemalis; test: NAHA activity assay, Mucor hiemalis; format: biochemical
Description: as §1, §2, §3

[4] = test system: NAHA activity from Ambrosia psilostachya (Rag weed pollen); test: NAHA activity assay, rag weed pollen; format: biochemical; settings: 30 min
Description: as §1, §2, §3

[5] = test system: NAHA activity from Graham-flour; test: NAHA activity assay (4-methylumbelliferyl N-acetyl-β-D-glucosaminide, fluorescence), Graham-flour; format: biochemical; settings: Graham-flour, 30 min
Description: as §1, §2, §3

[6] = test system: NAHA activity from Acremonium spp.; test: NAHA activity assay, Acremonium spp.; format: biochemical; settings: Acremonium spp.
Description: as §1, §2, §3

[7] = test system: NAHA activity from Stachybotrys chartarum; test: NAHA activity assay, Stachybotrys chartarum; format: biochemical
Description: as §1, §2, §3

[8] = test system: NAHA activity from Lepidoglyphus destructor (Storage mite); test: NAHA activity assay, storage mite; format: biochemical; settings: for NAHA activity, control without Ag+ = 100%: Lepidoglyphus destructor (Storage mite), 30 min
Description: as §1, §2, §3

[9] = test system: NAHA activity from Mugworth pollen; test: NAHA activity assay, mugworth pollen; format: biochemical; settings: 30 min
Description: as §1, §2, §3

[10] = test system: NAHA activity from Grass pollen; test: NAHA activity assay, grass pollen; format: biochemical; settings: for NAHA activity, control without Ag+ = 100%: Grass pollen, 30 min
Description: as §1, §2, §3

[11] = test system: NAHA activity from Fusarium culmorum; test: NAHA activity assay, Fusarium culmorum; format: biochemical
Description: as §1, §2, §3

[12] = test system: NAHA activity from Cladosporium sphaerospermum; test: NAHA activity assay, Cladosporium sphaerospermum; format: biochemical; settings: Cladosporium sphaerospermum
Description: as §1, §2, §3

[13] = test system: NAHA activity from Aspergillus fumigatus freeze dried; test: NAHA activity assay, Aspergillus fumigatus freeze dried; format: biochemical; settings: Aspergillus fumigatus freeze dried
Description: as §1, §2, §3

[14] = test system: NAHA activity from Penicillium crysogenum; test: NAHA activity assay, Penicillium crysogenum; format: biochemical; settings: Penicillium crysogenum
Description: as §1, §2, §3

[15] = test system: NAHA activity from Birch pollen; test: NAHA activity assay, birch pollen; format: biochemical; settings: Birch pollen, 30 min
Description: as §1, §2, §3

[16] = test system: NAHA activity from Cat dander; test: NAHA activity assay, cat dander; format: biochemical; settings: 30 min
Description: as §1, §2, §3

[17] = test system: NAHA activity from Aureobasidium pullulans; test: NAHA activity assay, Aureobasidium pullulans; format: biochemical
Description: as §1, §2, §3

[18] = test system: NAHA activity from Aspergillus fumigatus fresh from cultivation; test: NAHA activity assay, Aspergillus fumigatus fresh from cultivation; format: biochemical
Description: as §1, §2

[19] = test system: NAHA activity in Alternaria spp.; test: NAHA activity pilot experiment, Alternaria spp.; format: biochemical; settings: 10 μM
Description: as §1

[20] = test system: NAHA activity in Cladosporium spp.; test: NAHA activity pilot experiment, Cladosporium spp.; format: biochemical; settings: 10 μM
Description: as §1

[21] = test system: NAHA activity from Dermatophagoides pteronyssinus (Dust mite); test: NAHA activity assay, dust mite; format: biochemical; settings: Dermatophagoides pteronyssinus (Dust mite), 30 min
Description: as §1, §2, §3

[Hg+] [Hg^+]
inhibition of non-fungal NAHA activity (non-fungal NAHA activity; 10 μM): high inhibition
inhibition of fungal NAHA activity (fungal NAHA activity; 10 μM): less inhibition (but more than Ag^+)

[Cu+2] [Cu^2+]
inhibiting effect on NAHA activity from all sources [1]: did not exhibit any or exhibited only very slight inhibiting effect

O=[N+]([O-])[O-].[Ag+] [Ag+, AgNO3]
NAHA activity, control without Ag+ = 100% ([2]; Ag+ 10 μM): 67%
NAHA activity, control without Ag+ = 100% ([2]; Ag+ 25 μM): 65%
NAHA activity, control without Ag+ = 100% ([2]; Ag+ 100 μM): 63%
NAHA activity, control without Ag+ = 100% ([2]; Ag+ 400 μM): 46%
NAHA activity, 0 μM Ag+ = 100% ([3]; Ag+ 10 μM): 88%
NAHA activity, 0 μM Ag+ = 100% ([3]; Ag+ 25 μM): 63%
NAHA activity, 0 μM Ag+ = 100% ([3]; Ag+ 100 μM): 114%
NAHA activity, 0 μM Ag+ = 100% ([3]; Ag+ 400 μM): 57%
NAHA activity, control without Ag+ = 100% ([4]; Ag+ 10 μM): 69%
NAHA activity, control without Ag+ = 100% ([4]; Ag+ 25 μM): 55%
NAHA activity, control without Ag+ = 100% ([4]; Ag+ 100 μM): 19%
NAHA activity, control without Ag+ = 100% ([4]; Ag+ 400 μM): 17%
NAHA activity, control without Ag+ = 100% ([5]; Ag+ 10 μM): 35%
NAHA activity, control without Ag+ = 100% ([5]; Ag+ 25 μM): 33%
NAHA activity, control without Ag+ = 100% ([5]; Ag+ 100 μM): 25%
NAHA activity, control without Ag+ = 100% ([5]; Ag+ 400 μM): 19%
NAHA activity, 0 μM Ag+ = 100% ([6]; Ag+ 10 μM): 175%
NAHA activity, 0 μM Ag+ = 100% ([6]; Ag+ 25 μM): 143%
NAHA activity, 0 μM Ag+ = 100% ([6]; Ag+ 100 μM): 159%
NAHA activity, 0 μM Ag+ = 100% ([6]; Ag+ 400 μM): 132%
effect on the NAHA activity ([6]; pilot experiment, 10 μM): no significant effect
NAHA activity, 0 μM Ag+ = 100% ([7]; Ag+ 10 μM): 97%
NAHA activity, 0 μM Ag+ = 100% ([7]; Ag+ 25 μM): 91%
NAHA activity, 0 μM Ag+ = 100% ([7]; Ag+ 100 μM): 83%
NAHA activity, 0 μM Ag+ = 100% ([7]; Ag+ 400 μM): 93%
reduction of the non-fungal NAHA activity, on average (non-fungal NAHA activity; 100 μM in the assay substrate): 82%
NAHA activity retained, average of non-fungal sources, of the control (non-fungal NAHA activity; 400 μM): 13%
NAHA activity, control without Ag+ = 100% ([8]; Ag+ 10 μM): 3%
NAHA activity, control without Ag+ = 100% ([8]; Ag+ 25 μM): 2%
NAHA activity, control without Ag+ = 100% ([8]; Ag+ 100 μM): 1%
NAHA activity, control without Ag+ = 100% ([8]; Ag+ 400 μM): 0%
inhibition of NAHA activity ([8]; pilot experiment, 10 μM, mite Lepidoglyphus): almost total inhibition
NAHA activity, control without Ag+ = 100% ([9]; Ag+ 10 μM): 46%
NAHA activity, control without Ag+ = 100% ([9]; Ag+ 25 μM): 23%
NAHA activity, control without Ag+ = 100% ([9]; Ag+ 100 μM): 9%
NAHA activity, control without Ag+ = 100% ([9]; Ag+ 400 μM): 8%
NAHA activity, control without Ag+ = 100% ([10]; Ag+ 10 μM): 41%
NAHA activity, control without Ag+ = 100% ([10]; Ag+ 25 μM): 22%
NAHA activity, control without Ag+ = 100% ([10]; Ag+ 100 μM): 6%
NAHA activity, control without Ag+ = 100% ([10]; Ag+ 400 μM): 8%
inhibition of NAHA activity ([10]; pilot experiment, 10 μM, grass pollen): almost total inhibition
NAHA activity, 0 μM Ag+ = 100% ([11]; Ag+ 10 μM): 107%
NAHA activity, 0 μM Ag+ = 100% ([11]; Ag+ 25 μM): 107%
NAHA activity, 0 μM Ag+ = 100% ([11]; Ag+ 100 μM): 110%
NAHA activity, 0 μM Ag+ = 100% ([11]; Ag+ 400 μM): 102%
NAHA activity, 0 μM Ag+ = 100% ([12]; Ag+ 10 μM): 212%
NAHA activity, 0 μM Ag+ = 100% ([12]; Ag+ 25 μM): 154%
NAHA activity, 0 μM Ag+ = 100% ([12]; Ag+ 100 μM): 137%
NAHA activity, 0 μM Ag+ = 100% ([12]; Ag+ 400 μM): 167%
NAHA activity, 0 μM Ag+ = 100% ([13]; Ag+ 10 μM): 104%
NAHA activity, 0 μM Ag+ = 100% ([13]; Ag+ 25 μM): 108%
NAHA activity, 0 μM Ag+ = 100% ([13]; Ag+ 100 μM): 98%
NAHA activity, 0 μM Ag+ = 100% ([13]; Ag+ 400 μM): 91%
NAHA activity, 0 μM Ag+ = 100% ([14]; Ag+ 10 μM): 98%
NAHA activity, 0 μM Ag+ = 100% ([14]; Ag+ 25 μM): 106%
NAHA activity, 0 μM Ag+ = 100% ([14]; Ag+ 100 μM): 87%
NAHA activity, 0 μM Ag+ = 100% ([14]; Ag+ 400 μM): 65%
NAHA activity, control without Ag+ = 100% ([15]; Ag+ 10 μM): 91%
NAHA activity, control without Ag+ = 100% ([15]; Ag+ 25 μM): 74%
NAHA activity, control without Ag+ = 100% ([15]; Ag+ 100 μM): 18%
NAHA activity, control without Ag+ = 100% ([15]; Ag+ 400 μM): 11%
NAHA activity, control without Ag+ = 100% ([16]; Ag+ 10 μM): 96%
NAHA activity, control without Ag+ = 100% ([16]; Ag+ 25 μM): 69%
NAHA activity, control without Ag+ = 100% ([16]; Ag+ 100 μM): 6%
NAHA activity, control without Ag+ = 100% ([16]; Ag+ 400 μM): 3%
NAHA activity, 0 μM Ag+ = 100% ([17]; Ag+ 10 μM): 89%
NAHA activity, 0 μM Ag+ = 100% ([17]; Ag+ 25 μM): 91%
NAHA activity, 0 μM Ag+ = 100% ([17]; Ag+ 100 μM): 96%
NAHA activity, 0 μM Ag+ = 100% ([17]; Ag+ 400 μM): 76%
NAHA activity, 0 μM Ag+ = 100% ([18]; Ag+ 10 μM): 91%
NAHA activity, 0 μM Ag+ = 100% ([18]; Ag+ 25 μM): 103%
NAHA activity, 0 μM Ag+ = 100% ([18]; Ag+ 100 μM): 95%
NAHA activity, 0 μM Ag+ = 100% ([18]; Ag+ 400 μM): 87%
effect on the NAHA activity [19]: no significant effect
effect on the NAHA activity [20]: no significant effect
NAHA activity, control without Ag+ = 100% ([21]; Ag+ 10 μM): 80%
NAHA activity, control without Ag+ = 100% ([21]; Ag+ 25 μM): 57%
NAHA activity, control without Ag+ = 100% ([21]; Ag+ 100 μM): 13%
NAHA activity, control without Ag+ = 100% ([21]; Ag+ 400 μM): 6%
reduction of the fungal NAHA activity (fungal NAHA activity; 100 μM in the assay substrate): zero to very low reduction
fungal NAHA activity retained (fungal NAHA activity; 400 μM): a high percentage
inhibition of the fungal NAHA activity (fungal NAHA activity; inhibitor added to the fungal culture prior to the enzyme assay): complete inhibition
